Assay [1] concerns Cytomegalovirus. Nature of the assay: Inhibition of growth of human cytomegalovirus (HCMV) by plaque reduction assay in human lung fibroblast cell line. The conditions noted are these: Human betaherpesvirus 5, Fibroblast. It counts as functional, organism-based. On the technique in general: Plaques are areas of infected cells; plaque reduction assays count them against a control.

The next assay concerns Human alphaherpesvirus 2. Briefly: Inhibition of growth of herpes simplex virus (HSV-2) by plaque reduction assay in vero cell line. It counts as functional, organism-based. Particulars: Human alphaherpesvirus 2, Vero.
The test system of assay [2] is Human alphaherpesvirus 1. Nature of the assay: (§1) Inhibition of growth of herpes simplex virus (HSV-1) by plaque reduction assay in vero cell line. It counts as functional, organism-based. The conditions noted are these: Human alphaherpesvirus 1, Vero.
A further assay has as its system Human alphaherpesvirus 3. Nature of the assay: Inhibition of growth of varicella zoster virus(VZV) by plaque reduction assay in vero cell line. The conditions noted are these: Human alphaherpesvirus 3, Vero. Type of assay: functional, organism-based.
For assay [3], the system named is Cytomegalovirus. Nature of the assay: Inhibition of growth of human cytomegalovirus (HCMV) was determined by plaque reduction assay in human foreskin fibroblast cell line. Type of assay: functional, organism-based. Particulars: Human betaherpesvirus 5, Fibroblast.
Assay [4] concerns Cytomegalovirus. Briefly: Inhibition of growth of human cytomegalovirus (HCMV) was determined by plaque reduction assay in human lung fibroblast cell line. Type of assay: functional, organism-based. The conditions noted are these: Human betaherpesvirus 5, Fibroblast.
In assay [5] the test system is Cytomegalovirus. Nature of the assay: Inhibition of growth of human cytomegalovirus (HCMV) was determined by plaque reduction assay in Detroit cells. Particulars: Human betaherpesvirus 5, Detroit. Type of assay: functional, organism-based.
The test system of assay [6] is Human alphaherpesvirus 1. The assay is described as §1. The conditions noted are these: Human alphaherpesvirus 1, Vero. Type of assay: functional, organism-based, herpes simplex vir.

SMILES strings stand for the structures.

By IC50 is commonly meant the concentration that gives 50% inhibition. The low end stands for greater potency in that assay, the high end for weaker potency in that assay.

As to `Nc1ccn(COC(CO)CO)c(=O)n1`, the half-maximal inhibitory concentration (IC50) in the assay with Cytomegalovirus [1] came to 11.2 µM; with Human alphaherpesvirus 2, 50 µM; in the assay on Human alphaherpesvirus 1 [2], 140 µM; in the assay on Human alphaherpesvirus 3, 17.1 µM.

For `Nc1ncn(COC(CO)CO)c(=O)n1`, the half-maximal inhibitory concentration (IC50) was over 25 µM in the assay with Cytomegalovirus [3], 100 µM in the assay with Cytomegalovirus [4] and over 100 µM in the assay with Human alphaherpesvirus 2.

`Cc1cn(COC(CO)CO)c(=O)[nH]c1=O`: the IC50 with Cytomegalovirus [4] was over 250 µM; in the assay on Human alphaherpesvirus 3, over 100 µM.

As to `CNc1ccn(COC(CO)CO)c(=O)n1`, the IC50 with Cytomegalovirus [4] was over 100 µM.

Consider `O=c1ccn(COC(CO)CO)c(=O)[nH]1`, for which the concentration for half-maximal inhibition (IC50) in the assay with Cytomegalovirus [4] is over 250 µM; with Human alphaherpesvirus 3, over 100 µM.

For `O=c1[nH]c(=O)n(COC(CO)CO)cc1I` [IODACYCLUR], the 50% inhibitory concentration (IC50) with Cytomegalovirus [5], in the assay on Human alphaherpesvirus 1 [6] and with Human alphaherpesvirus 3 was over 100 µM in each case.

Compound `COC(=O)CC(CC(=O)OC)OC[n+]1ccc(N)nc1` showed an IC50 with Cytomegalovirus [4] of over 100 µM.

Consider `Cc1cn(COC(CO)CO)c(=O)nc1N`, for which the half-inhibitory concentration (IC50) with Cytomegalovirus [4] and in the assay on Human alphaherpesvirus 3 was over 100 µM each time.

Compound `Nc1cn(COC(CO)CO)c(=O)[nH]c1=O` gave a half-maximal inhibitory concentration (IC50) with Human alphaherpesvirus 3 of over 100 µM.

In the case of `Nc1nc(=O)n(COC(CO)CO)cc1F`, inhibition in the assay on Cytomegalovirus [4] was half-maximal at 100 µM (IC50).

As for `Nc1nc(=O)n(COC(CO)CO)cc1I`, the IC50 with Cytomegalovirus [4] and with Human alphaherpesvirus 3 was over 100 µM in each case.

For the compound `O=c1[nH]c(=O)n(COC(CO)CO)cc1Br`, the IC50 in the assay on Cytomegalovirus [4] and in the assay on Human alphaherpesvirus 3 was over 100 µM each time.

In turn, `Nc1ccn(COC(CO)CO)c(=S)n1` came in with a concentration for half-maximal inhibition (IC50) with Cytomegalovirus [4] of over 100 µM.

In the case of `Nc1nc(=O)ccn1COC(CO)CO`, the IC50 in the assay with Cytomegalovirus [4] was over 100 µM.

Take `Nc1nc2c(ncn2COC(CO)CO)c(=O)[nH]1` [GANCICLOVIR]: the half-maximal inhibitory concentration (IC50) was 3.4 µM in the assay on Cytomegalovirus [4], 0.1 µM in the assay on Human alphaherpesvirus 2, 0.1 µM in the assay on Human alphaherpesvirus 1 [2] and 2.8 µM in the assay with Human alphaherpesvirus 3.

Take `CN(C)c1ccn(COC(CO)CO)c(=O)n1`: the concentration for half-maximal inhibition (IC50) in the assay with Cytomegalovirus [4], in the assay with Human alphaherpesvirus 1 [2] and with Human alphaherpesvirus 3 was over 100 µM each time.

These data come from ChEMBL document CHEMBL1123942, “Effect of acyclic pyrimidines related to 9-[(1,3-dihydroxy-2-propoxy)methyl]guanine on herpesviruses” (J Med Chem, 1988).
